Reference: patent US9402837B2, “Method for the treatment of neurological disorders by enhancing the activity of β-glucocerebrosidase” (Amicus Therapeutics, Inc., priority 2006, dated 2016)
Where a name gives a salt, the structure may show the parent alone.

Assays:
GCase [1] = target: GCase (Mus musculus (Mouse), UniProt P17439); test: In vivo GCase activity in normal mice upon treatment with IFG
Description: This Example provides information on the effects of isofagomine, a GCase-specific chaperone on mice. […] Ten male C57BL6 (25 g) mice per group were used. The drug was be given in the drinking water, therefore water consumption was monitored daily.
In the control group (0 mg/kg/day), the mice were dosed daily in the drinking water (no drug) and divided into two groups. Ten animals were euthanized after 4 weeks of treatment, blood was collected from the descending aorta or vena cava, and tissues were harvested and then necropsied.
In the test group, 10 mice were dosed daily in the drinking water with an administration aim of 200 mg/kg/day.
The blood samples were drawn into lithium heparin and spun for plasma. After bleeding, the spleen, lung, brain and liver were removed and placed into vials. The vials were put into dry ice for rapid freezing. The tissues and plasma were then analyzed for tissue levels of GCase.
Small portions of tissue were removed and added to 500 μl lysis buffer (20 mM sodium citrate and 40 mM disodium hydrogen phosphate, pH 4.0, including 0.1% Triton X-100). Tissues were then homogenized using a microhomogenizer for a brief time, followed by centrifugation at 10,000 rpm for 10 minutes at 4° C. Supernatants were transferred to a new tube and used for the enzyme assay.
The enhancement ratio is equal to the activity with the compound over the activity without the compound.

[2] = Phase I pharmacokinetics of oral IFG tartrate in healthy volunteers; assay type: in vivo, human; conditions: for accumulation after repeated doses: multiple-dose study, 7 days oral, Day 1 vs Day 7
Description: (§1) In a first-in-human single ascending dose study (1a), doses of 8, 25, 75, 150 (two cohorts), and 300 mg were administered (6 active, 2 placebo in each cohort). In a multiple ascending dose study (1b), doses of 25, 75, and 225 mg were administered daily for seven days (6 active, 2 placebo in each cohort). In both studies, of the eight subjects in each group; six were randomized to receive IFG tartrate, and two subjects received placebo. Subjects were confined from the evening of day-1 until 24 hrs after completion of dosing. In the phase 1a study subjects returned at 48 hrs (PK sampling) and 7 days (safety follow-up) following dosing. In the phase 1b study subjects returned at 48 h (PD sampling), 7 days (PD sampling and safety follow-up), and 14 days (PD sampling) following the last dose
Subjects were healthy male and female volunteers between 19 and 55 years of age (inclusive) consisting of members of the community at large.
Blood samples (10 mL each) were collected in blood collection tubes containing EDTA before dosing was determined at regular intervals for the phas 1a during 48 hr following dosing. In the phase 1b study a full IFG tartrate pharmacokinetic profile was determined for 24 hr following the first dose, Cmin values were obtained pre-dose on day 6 and 7, and another full profile was determined for 24 hr following the final, day 7, dose.

[3] = Phase I safety and tolerability in healthy volunteers; assay type: in vivo, human
Description: as §1
Safety was determined by evaluating vital signs, laboratory parameters (serum chemistry, hematology, and urinalysis), physical examination and by recording adverse events during the Treatment Period.
Safety data including laboratory evaluations, physical exams, adverse events, ECG monitoring and vital signs assessments were summarized by treatment group and point of time of collection. Descriptive statistics (arithmetic mean, standard deviation, median, minimum and maximum) were calculated for quantitative safety data as well as for the difference to baseline. Frequency counts were compiled for classification of qualitative safety data.

GCase [4] = target: GCase (Homo sapiens (Human), UniProt P04062); test: GCase enzymatic activity in healthy volunteers receiving IFG; assay type: in vivo
Sequence of GCase (Homo sapiens (Human), UniProt P04062) (P04062 40-536): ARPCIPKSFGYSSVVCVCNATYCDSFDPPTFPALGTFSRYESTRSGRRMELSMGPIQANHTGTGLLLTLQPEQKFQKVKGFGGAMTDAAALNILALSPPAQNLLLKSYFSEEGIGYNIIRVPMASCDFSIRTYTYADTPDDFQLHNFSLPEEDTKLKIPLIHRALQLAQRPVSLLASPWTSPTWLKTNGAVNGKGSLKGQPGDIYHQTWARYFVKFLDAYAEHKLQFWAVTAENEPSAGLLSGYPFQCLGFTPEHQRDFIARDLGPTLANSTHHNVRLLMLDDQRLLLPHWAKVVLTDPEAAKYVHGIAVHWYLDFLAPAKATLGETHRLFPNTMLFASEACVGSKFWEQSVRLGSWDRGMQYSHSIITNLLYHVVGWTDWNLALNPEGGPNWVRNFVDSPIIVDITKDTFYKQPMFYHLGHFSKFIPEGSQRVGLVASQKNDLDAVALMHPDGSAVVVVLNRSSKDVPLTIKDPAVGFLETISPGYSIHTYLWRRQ
Description: as §1
GCase activity was determined pre-dose on days 1, 3, 5, 7, 9, 14, and 21. Blood samples were cooled in an ice bath and centrifuged under refrigeration as soon as possible. Plasma samples were divided into two aliquots and stored at […] pending assay. At the end of the study, all samples were transferred to MDS Pharma Services Analytical Laboratories (Lincoln) for analysis.

α-synuclein [5] = test: α-synuclein accumulation in brains of V394L knock-in mice treated with CBE; assay type: in vivo; conditions: CBE daily i.p. for 30 days
Description: Mice homozygous for the point mutations D409H or V394L and expressing a low level of saposin C in a prosaposin knock-out background, were analyzed for accumulation of α-synuclein in the brain. These mice have been reported to accumulate glucosylceramide in the brain. Mice homozygous for the point mutations V394L only, were analyzed for α-synuclein accumulation with and without CBE treatment. […] Mice were administered CBE daily by interperitonally injection for 30 consequitive days ([…] calculated from the total weight of the mouse) and brains were analyzed by immunohistochemistry for accumulation of α-synuclein.
Brain tissue was frozen and fixed for immunohistochemistry with 4% paraformaldehyde and serial sections were co-labelled with anti-human α-synuclein (ab1903; Abcam, Cambridge, Mass.) and rabbit anti-ubiquitin (ab7780; Abcam, Cambridge, Mass.).

α-synuclein [6] = test: α-synuclein immunohistochemistry in transgenic mice over-expressing α-synuclein; assay type: in vivo
Description: 48 transgenic animals (male and female) were allocated to 6 groups (n=8) at an age of 5 to 6 weeks concerning baseline and 3 to 4 weeks, respectively concerning all other treatment groups at treatment start. One group of transgenic animals served as baseline group (5 weeks old) and was sacrificed untreated on day 0. One group of transgenic animals was treated with vehicle.
Mice (ages 3-4 weeks) were treated once daily (orally) at either 2 mg/kg; 20 mg/kg; or 200 mg/kg of IFG tartrate for 3 months. One group also was treated once every other day at 20 mg/kg.
Animals of the baseline group were sacrificed at an age of 5 weeks. All other animals were sacrificed at the end of the 3 months treatment period and blood for preparation of serum and macrophages as well as lung, brain and CSF were extracted. Therefore, all mice were sedated by standard inhalation anesthesia (Isofluran, Baxter). Cerebrospinal fluid was obtained by blunt dissection and exposure of the foramen magnum. Upon exposure, a Pasteur pipette was inserted to the approximate depth of 0.3-1 mm into the foramen magnum. CSF was collected by suctioning and capillary action until flow fully ceases. CSF was immediately frozen and kept at −80° C.
After CSF sampling, each mouse was placed in dorsal recumbence, the thorax was opened and a 26-gauge needle attached to a 1 cc syringe was inserted into the right cardiac ventricular chamber. Light suction was applied to the needle. Blood was separated into 2 parts. […] Mice were transcardially perfused with physiological (0.9%) saline and lung tissue as well as brain was rapidly removed. The lungs were rinsed in cold PBS (outside only) to remove blood and then they were quick frozen.
The brains were removed and hemisected. The right hemispheres of all mice were immersion fixed in freshly produced 4% paraformaldehyde/PBS (pH 7.4) for one hour at room temperature. Thereafter brains were transferred to a 15% sucrose PBS solution for 24 hours to ensure cryoprotection. On the next day brains were frozen in liquid isopentane and stored at −80° C. until used for histological investigations. To determine the effects of the IFG-tartrate treatment from 8 animals per group 10 μm-thick cryosections were cut for determination of alpha-synuclein pathology. All organs and tissues mentioned were sampled and from specific brain regions i.e. hippocampus, midbrain, frontal cortex and striatum of one hemibrain were extracted and frozen. The other brain half was processed for histological evaluation.
For evaluation of the number of α-synuclein positive cells and Lewy body like inclusions an immunohistochemical staining was carried out using the monoclonal human alpha-synuclein specific antibody (Alexis@; Cat#804-258-L001), dilution 1:5, detected with secondary Cy2 antibody (Jackson Immunoresearch®). The number of alpha-synuclein positive cells in five different layers, one slice per layer, was counted for evaluation in the whole hippocampus and cortex seperately.
Briefly, samples were washed for 10 min with PBS at room temperature, followed by fixing for 30 min at room temperature with 4% paraformaldehyde, followed by washing 2 times for 5 min each with PBS at room temperature. For Proteinase K-treated sections, sections were incubated in PBS containing 10 μg/ml proteinase-K for 10 minutes at room temperature. Next, samples were incubated for 15 min at room temperature with blocking solution to block endogenous peroxidase, followed by two more 5 min washes with PBS. Samples were then incubated for 60 min at room temperature with a blocking reagent to block non-specific binding, followed by two more 5 min washes with PBS. Samples were then incubated with M.O.M. diluent for 5 min at room temperature, followed by incubation with the primary antibody (dilution 1:5 in M.O.M. diluent) for 60 min with at room temperature. […]

Sequence of GCase (Mus musculus (Mouse), UniProt P17439) (P17439 20-515): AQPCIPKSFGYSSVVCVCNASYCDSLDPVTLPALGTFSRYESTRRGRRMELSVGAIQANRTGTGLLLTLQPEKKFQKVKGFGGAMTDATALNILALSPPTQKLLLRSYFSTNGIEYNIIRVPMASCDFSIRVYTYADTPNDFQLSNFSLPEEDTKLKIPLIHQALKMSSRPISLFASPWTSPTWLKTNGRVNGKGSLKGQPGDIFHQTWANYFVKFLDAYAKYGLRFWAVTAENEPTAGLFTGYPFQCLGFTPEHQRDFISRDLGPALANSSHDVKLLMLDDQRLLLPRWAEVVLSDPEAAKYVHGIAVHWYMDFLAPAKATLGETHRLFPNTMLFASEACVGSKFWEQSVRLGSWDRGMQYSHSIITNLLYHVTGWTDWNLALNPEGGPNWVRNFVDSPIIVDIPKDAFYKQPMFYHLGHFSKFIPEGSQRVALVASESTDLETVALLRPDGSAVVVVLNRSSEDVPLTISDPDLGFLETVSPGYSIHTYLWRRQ

Compound | wild-type GCase activity dose-response (GCase [1]; mice treated with 0, 1, 10, or 100 mg/kg/day) | GCase levels in tissues (GCase [1]; normal C57BL6 mice, 200 mg/kg/day in drinking water, liver, spleen, brain and lung) | accumulation after repeated doses [2] | sex differences in pharmacokinetic parameters ([2]; repeated doses) | adverse events most frequently reported ([3]; healthy adult subjects) | increase in GCase levels above baseline (GCase [4]; healthy volunteers, treatment period, dose-related, maximum reached) | GCase levels after removal of the drug (GCase [4]; two weeks after the last dose) | α-synuclein in the brain (α-synuclein [5]) | systemic exposure via the oral route ([2]; healthy volunteers) | plasma AUC and Cmax versus administered dose ([2]; single-dose study) | serious adverse events ([3]; healthy volunteers, both Phase I studies) | tolerability ([3]; healthy volunteers, single (8-300 mg) and multiple (25-225 mg, 7 days) oral doses) | number of α-synuclein immunoreactive cells in the hippocampus versus vehicle (α-synuclein [6]; 2 mg/kg daily, 3 months) | age-accompanied increase of α-synuclein positive cell load versus baseline (α-synuclein [6]; 2 mg/kg, mean of cortex and hippocampus) | accumulation of Proteinase K-resistant α-synuclein aggregates (α-synuclein [6]; 20 mg/kg, 3 months, single responding animal) | α-synuclein pathology versus controls (α-synuclein [6]; 20 mg/kg, daily or every other day, 3 months) | qualitative α-synuclein immunostaining versus control animals (α-synuclein [6]; 2 and 20 mg/kg b.w. daily, 3 months, cortex and hippocampus) | α-synuclein pathology in the cortex (α-synuclein [6]; 3 months treatment)
OC[C@H]1CNC[C@@H](O)[C@@H]1O [Isofagomine, (3R,4R,5R)-5-(hydroxymethyl)-3,4-piperidinediol] | linear dose-response increase | increased | Minimal accumulation | no observable sex differences | contact dermatitis, headache, nausea, increased serum bilirubin, dizziness, scab, ocular hyperaemia, and puncture site pain | approximately 3.5 fold | return to near baseline levels by day 21 |  |  |  |  |  |  |  |  |  |  | 
O[C@H]1[C@H](O)[C@@H](O)[C@@H]2O[C@@H]2[C@@H]1O [CBE, conduritol-β-epoxide] |  |  |  |  |  |  |  | resulted in accumulation of α-synuclein in the brain |  |  |  |  |  |  |  |  |  | 
OC[C@H]1CNC[C@@H](O)[C@@H]1O [Isofagomine tartrate] |  |  | no unexpected accumulation |  |  |  |  |  | good systemic exposure | linearly correlated with administered dose | No serious adverse events occurred | generally well tolerated | reduced the number of immunoreactive cells in the hippocampus significantly | prevented mice from the age-accompanied increase of pathology | prevents the accumulation of these α-synuclein aggregates | not effective versus controls | strongly decreased background and decreased α-synuclein positive cell numbers in some | did not reach significance level in the cortex
